The values below come from patent US20250326720A1, “CAREBASTINE SALT AND USE OF SAME” (priority 2022, published 2025).

Marks after values point to notes of the source that are not given here.

The subject of series [1] is histamine-induced shock in guinea pigs. In words: Histamine-induced shock test in guinea pigs. Format: in vivo. Conditions: gavage, equimolar to 1.00 mg/kg ebastine, histamine phosphate i.v. one hour after administration, n = 10. The method, then: One hour after administration, 0.125 wt. % histamine phosphate saline solution was injected intravenously into lateral sides of hind paws of the guinea pigs at 2 ml/kg. After the injection was completed within 10 s, a stopwatch was used immediately to observe the latency period for the guinea pigs to develop accelerated respiration and collapse with convulsions.

Series [2] is classed as in vivo. To be noted: SD rats. The procedure: Twenty-four SD rats weighing about 180 g to 200 g were randomly divided into 4 groups, with 6 rats in each group, half of which were male and half were female. The rats were given the corresponding drugs by intragastric administration.
The rats were fasted for 12 hours before administration, but were allowed to drink water freely.
Preparation of test substances: The preparation of test substances was carried out on the workbench in the related art in the preparation room.
Blank blood was collected before administration, and blood was collected at predetermined time points of 0.25 h, 0.5 h, 0.75 h, 1 h, 2 h, 3 h, 4 h, 6 h, 8 h, 10 h, and 24 h after administration. About 0.5 mL of blood was collected and placed in an EDTA-K2 tube, and the plasma was separated by centrifugation and stored at −80° C. The prototype and the metabolite, namely, carebastine, in a plasma sample were detected and analyzed by liquid chromatography-mass spectrometry (LC-MS/MS), and pharmacokinetic parameters were calculated.

For series [3], the system named is KM mice. To be noted: both, KM, mouse, in vivo, 14 days. The procedure: All drugs were administered by intragastric administration, and the blank control group was administered with an equal volume of 0.5% CMC-Na solution. All animals were fasted for 12 hours before administration, but were allowed to drink water freely.
After administration, the mice were kept and observed for 14 days, and the toxic reactions (such as death) of the mice were observed and recorded every day. After the observation period, all surviving animals were dissected to observe whether there were obvious lesions in each organ.

With `CC(C)(C)c1ccc(C(=O)CCCN2CCC(OC(c3ccccc3)c3ccccc3)CC2)cc1` [Comparative Example 1, ebastine], in series [1], the Mortality rate is listed as 0/10; the “Time of convulsion and collapse” value is on record as 349* s. Besides, in series [2] (three female vs three male per group), the “gender differences (AUC and Cmax, female vs male rats)” value is listed as “showed gender differences”. The “content of the prototype” value in series [2] (prototype (ebastine) in plasma, single intragastric 10 mg/kg) is “lower than 3 ng/mL”. Also, the MDT in series [3] was more than 2500 mg/kg.
